Test results published in paper PMC10382584, “Macrocyclization of linear molecules by deep learning to facilitate macrocyclic drug candidates discovery” (Nature Communications, 2023).

Experiments:
Test in all cases: biochemical
Set-up in all cases: DiscoveRx KINOMEscan competition binding, percent of DMSO control signal at 100 nM
Settings in all cases: read-out: Fig. 4a / Percent Control / Compound 1; percent of DMSO control, competition binding
ALK(L1196M) = ALK(L1196M) (Homo sapiens, UniProt Q9UM73, L1196M)
Method: (§1) The kinase selectivity profile was performed by using the DiscoveRx KINOMEscan platform. […] Test compounds were prepared as 40× stocks in 100% DMSO and directly diluted into the assay. The results were defined as a percentage of signal between the negative (DMSO, 100% control) and the positive (control compound, 0% control) control, which was calculated as follows: percent control = [(test compound signal − positive control signal)/(negative control signal − positive control signal)] × 100.

CDK11 = biological target: T1, CDK11 (Homo sapiens, UniProt Q9BWU1)
T1 construct: gene CDK19
Method: as §1

CDK4 = CDK4 (Homo sapiens, UniProt P11802)
Method: as §1

CHEK2 = CHEK2 (Homo sapiens, UniProt O96017)
Method: as §1

CSNK1A1 = CSNK1A1 (Homo sapiens, UniProt P48729)
Method: as §1

CSNK1G2 = CSNK1G2 (Homo sapiens, UniProt P78368)
Method: as §1

DMPK2 = biological target: T2, DMPK2 (Homo sapiens, UniProt Q6DT37)
T2 construct: gene CDC42BPG
Method: as §1

DRAK1 = biological target: T3, DRAK1 (Homo sapiens, UniProt Q9UEE5)
T3 construct: gene STK17A
Method: as §1

DRAK2 = biological target: T4, DRAK2 (Homo sapiens, UniProt O94768)
T4 construct: gene STK17B
Method: as §1

FLT3(D835Y) = FLT3(D835Y) (Homo sapiens, UniProt P36888, D835Y)
Method: as §1

HCK = HCK (Homo sapiens, UniProt P08631)
Method: as §1

IRAK3 = IRAK3 (Homo sapiens, UniProt Q9Y616)
Method: as §1

[1] = biological target: T5, JAK3(JH1domain-catalytic) (Homo sapiens, UniProt P52333)
T5 construct: JH1domain-catalytic
Method: as §1

JNK3 = biological target: T6, JNK3 (Homo sapiens, UniProt P53779)
T6 construct: gene MAPK10
Method: as §1

PFTK1 = biological target: T7, PFTK1 (Homo sapiens, UniProt O94921)
T7 construct: gene CDK14
Method: as §1

PIP5K2C = biological target: T8, PIP5K2C (Homo sapiens, UniProt Q8TBX8)
T8 construct: gene PIP4K2C
Method: as §1

PRKCE = PRKCE (Homo sapiens, UniProt Q02156)
Method: as §1

PRKG2 = PRKG2 (Homo sapiens, UniProt Q13237)
Method: as §1

RET(V804L) = RET(V804L) (Homo sapiens, UniProt P07949, V804L)
Method: as §1

RIOK1 = RIOK1 (Homo sapiens, UniProt Q9BRS2)
Method: as §1

SNRK = SNRK (Homo sapiens, UniProt Q9NRH2)
Method: as §1

SgK110 = biological target: T9, SgK110 (Homo sapiens, UniProt P0C264)
T9 construct: gene SBK3
Method: as §1

TAK1 = biological target: T10, TAK1 (Homo sapiens, UniProt O43318)
T10 construct: gene MAP3K7
Method: as §1

ULK2 = ULK2 (Homo sapiens, UniProt Q8IYT8)
Method: as §1

YES = biological target: T11, YES (Homo sapiens, UniProt P07947)
T11 construct: gene YES1
Method: as §1
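Note: KINOMEscan kinase panel binding assay, signal normalized between DMSO as 100% and a positive control compound as 0%.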

T3 sequence (Q9UEE5 whole entry): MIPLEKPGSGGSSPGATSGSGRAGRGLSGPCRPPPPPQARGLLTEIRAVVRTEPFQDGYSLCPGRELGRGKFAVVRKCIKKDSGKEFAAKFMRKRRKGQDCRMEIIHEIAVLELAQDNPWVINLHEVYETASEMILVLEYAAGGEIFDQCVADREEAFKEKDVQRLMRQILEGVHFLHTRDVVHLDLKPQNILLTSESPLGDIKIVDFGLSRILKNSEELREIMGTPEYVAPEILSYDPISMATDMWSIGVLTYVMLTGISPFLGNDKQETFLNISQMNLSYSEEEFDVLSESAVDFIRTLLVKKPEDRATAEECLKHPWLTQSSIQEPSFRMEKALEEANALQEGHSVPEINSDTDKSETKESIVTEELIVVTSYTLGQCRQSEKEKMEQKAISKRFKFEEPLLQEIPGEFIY
T11 sequence (P07947 whole entry): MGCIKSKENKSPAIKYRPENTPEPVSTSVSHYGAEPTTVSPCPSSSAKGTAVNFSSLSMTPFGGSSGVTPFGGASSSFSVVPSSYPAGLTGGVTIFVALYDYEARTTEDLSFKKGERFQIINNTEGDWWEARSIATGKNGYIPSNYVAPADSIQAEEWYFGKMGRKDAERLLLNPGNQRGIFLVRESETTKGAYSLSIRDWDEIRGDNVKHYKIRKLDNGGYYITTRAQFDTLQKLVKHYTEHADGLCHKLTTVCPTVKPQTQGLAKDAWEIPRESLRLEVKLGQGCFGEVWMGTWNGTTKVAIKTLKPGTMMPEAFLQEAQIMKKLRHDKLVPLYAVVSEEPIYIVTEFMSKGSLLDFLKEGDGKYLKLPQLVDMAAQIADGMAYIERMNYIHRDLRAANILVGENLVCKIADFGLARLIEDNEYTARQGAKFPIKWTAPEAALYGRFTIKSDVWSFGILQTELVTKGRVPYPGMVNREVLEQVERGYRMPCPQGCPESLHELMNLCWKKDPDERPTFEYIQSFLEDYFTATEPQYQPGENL
Sequence of CSNK1A1 (P48729 whole entry): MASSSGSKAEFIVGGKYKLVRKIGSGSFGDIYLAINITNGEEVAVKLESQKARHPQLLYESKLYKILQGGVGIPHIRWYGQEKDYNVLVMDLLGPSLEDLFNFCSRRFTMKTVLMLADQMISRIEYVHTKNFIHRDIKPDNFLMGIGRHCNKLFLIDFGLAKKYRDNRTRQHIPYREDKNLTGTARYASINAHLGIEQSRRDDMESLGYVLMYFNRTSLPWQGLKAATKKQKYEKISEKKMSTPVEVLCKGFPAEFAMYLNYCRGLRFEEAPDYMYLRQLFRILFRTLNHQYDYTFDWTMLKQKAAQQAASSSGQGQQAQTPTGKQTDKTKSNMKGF
T7 sequence (O94921 whole entry): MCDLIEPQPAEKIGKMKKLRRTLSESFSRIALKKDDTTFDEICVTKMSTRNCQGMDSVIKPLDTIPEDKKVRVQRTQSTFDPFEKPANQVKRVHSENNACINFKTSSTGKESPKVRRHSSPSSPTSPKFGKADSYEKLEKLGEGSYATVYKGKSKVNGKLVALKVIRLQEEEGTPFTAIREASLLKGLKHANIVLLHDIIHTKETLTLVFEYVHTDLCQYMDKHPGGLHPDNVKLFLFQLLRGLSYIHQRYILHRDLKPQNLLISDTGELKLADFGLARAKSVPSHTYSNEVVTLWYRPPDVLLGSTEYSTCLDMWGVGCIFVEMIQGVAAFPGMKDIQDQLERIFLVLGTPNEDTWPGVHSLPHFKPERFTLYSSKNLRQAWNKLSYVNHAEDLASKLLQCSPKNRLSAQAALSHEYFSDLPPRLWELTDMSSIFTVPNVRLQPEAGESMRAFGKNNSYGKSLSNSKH
T8 sequence (Q8TBX8 whole entry): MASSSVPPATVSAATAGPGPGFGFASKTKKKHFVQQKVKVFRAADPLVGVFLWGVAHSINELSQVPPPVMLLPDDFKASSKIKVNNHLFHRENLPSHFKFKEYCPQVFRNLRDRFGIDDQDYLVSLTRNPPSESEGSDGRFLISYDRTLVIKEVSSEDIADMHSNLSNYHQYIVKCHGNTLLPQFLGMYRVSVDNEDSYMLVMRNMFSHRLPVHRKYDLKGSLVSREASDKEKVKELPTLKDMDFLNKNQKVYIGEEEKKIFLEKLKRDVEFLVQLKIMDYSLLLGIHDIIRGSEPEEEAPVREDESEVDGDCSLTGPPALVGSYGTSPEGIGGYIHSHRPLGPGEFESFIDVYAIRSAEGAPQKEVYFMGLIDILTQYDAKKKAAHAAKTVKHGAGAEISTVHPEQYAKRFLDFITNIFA
Sequence of SNRK (Q9NRH2 whole entry): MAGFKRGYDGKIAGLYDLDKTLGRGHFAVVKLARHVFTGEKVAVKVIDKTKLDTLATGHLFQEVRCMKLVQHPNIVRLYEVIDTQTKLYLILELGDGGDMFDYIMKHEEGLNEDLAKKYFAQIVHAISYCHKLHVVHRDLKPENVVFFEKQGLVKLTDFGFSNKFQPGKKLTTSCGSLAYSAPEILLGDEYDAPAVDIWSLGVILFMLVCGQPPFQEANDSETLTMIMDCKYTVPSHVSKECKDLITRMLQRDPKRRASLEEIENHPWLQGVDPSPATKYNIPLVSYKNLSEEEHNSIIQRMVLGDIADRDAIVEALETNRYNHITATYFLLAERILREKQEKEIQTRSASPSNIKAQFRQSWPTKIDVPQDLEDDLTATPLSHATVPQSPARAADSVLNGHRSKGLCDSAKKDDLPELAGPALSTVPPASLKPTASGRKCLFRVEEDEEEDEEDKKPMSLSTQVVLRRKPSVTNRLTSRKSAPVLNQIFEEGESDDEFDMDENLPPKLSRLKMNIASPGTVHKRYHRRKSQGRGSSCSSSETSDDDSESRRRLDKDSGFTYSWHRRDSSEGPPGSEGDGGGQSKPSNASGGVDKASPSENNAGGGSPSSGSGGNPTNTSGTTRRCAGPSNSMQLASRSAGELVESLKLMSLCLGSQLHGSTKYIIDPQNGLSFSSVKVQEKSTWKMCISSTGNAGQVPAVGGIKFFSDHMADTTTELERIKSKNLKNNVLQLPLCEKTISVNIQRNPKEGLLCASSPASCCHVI
Sequence of ALK(L1196M) (Q9UM73 whole entry L1196M): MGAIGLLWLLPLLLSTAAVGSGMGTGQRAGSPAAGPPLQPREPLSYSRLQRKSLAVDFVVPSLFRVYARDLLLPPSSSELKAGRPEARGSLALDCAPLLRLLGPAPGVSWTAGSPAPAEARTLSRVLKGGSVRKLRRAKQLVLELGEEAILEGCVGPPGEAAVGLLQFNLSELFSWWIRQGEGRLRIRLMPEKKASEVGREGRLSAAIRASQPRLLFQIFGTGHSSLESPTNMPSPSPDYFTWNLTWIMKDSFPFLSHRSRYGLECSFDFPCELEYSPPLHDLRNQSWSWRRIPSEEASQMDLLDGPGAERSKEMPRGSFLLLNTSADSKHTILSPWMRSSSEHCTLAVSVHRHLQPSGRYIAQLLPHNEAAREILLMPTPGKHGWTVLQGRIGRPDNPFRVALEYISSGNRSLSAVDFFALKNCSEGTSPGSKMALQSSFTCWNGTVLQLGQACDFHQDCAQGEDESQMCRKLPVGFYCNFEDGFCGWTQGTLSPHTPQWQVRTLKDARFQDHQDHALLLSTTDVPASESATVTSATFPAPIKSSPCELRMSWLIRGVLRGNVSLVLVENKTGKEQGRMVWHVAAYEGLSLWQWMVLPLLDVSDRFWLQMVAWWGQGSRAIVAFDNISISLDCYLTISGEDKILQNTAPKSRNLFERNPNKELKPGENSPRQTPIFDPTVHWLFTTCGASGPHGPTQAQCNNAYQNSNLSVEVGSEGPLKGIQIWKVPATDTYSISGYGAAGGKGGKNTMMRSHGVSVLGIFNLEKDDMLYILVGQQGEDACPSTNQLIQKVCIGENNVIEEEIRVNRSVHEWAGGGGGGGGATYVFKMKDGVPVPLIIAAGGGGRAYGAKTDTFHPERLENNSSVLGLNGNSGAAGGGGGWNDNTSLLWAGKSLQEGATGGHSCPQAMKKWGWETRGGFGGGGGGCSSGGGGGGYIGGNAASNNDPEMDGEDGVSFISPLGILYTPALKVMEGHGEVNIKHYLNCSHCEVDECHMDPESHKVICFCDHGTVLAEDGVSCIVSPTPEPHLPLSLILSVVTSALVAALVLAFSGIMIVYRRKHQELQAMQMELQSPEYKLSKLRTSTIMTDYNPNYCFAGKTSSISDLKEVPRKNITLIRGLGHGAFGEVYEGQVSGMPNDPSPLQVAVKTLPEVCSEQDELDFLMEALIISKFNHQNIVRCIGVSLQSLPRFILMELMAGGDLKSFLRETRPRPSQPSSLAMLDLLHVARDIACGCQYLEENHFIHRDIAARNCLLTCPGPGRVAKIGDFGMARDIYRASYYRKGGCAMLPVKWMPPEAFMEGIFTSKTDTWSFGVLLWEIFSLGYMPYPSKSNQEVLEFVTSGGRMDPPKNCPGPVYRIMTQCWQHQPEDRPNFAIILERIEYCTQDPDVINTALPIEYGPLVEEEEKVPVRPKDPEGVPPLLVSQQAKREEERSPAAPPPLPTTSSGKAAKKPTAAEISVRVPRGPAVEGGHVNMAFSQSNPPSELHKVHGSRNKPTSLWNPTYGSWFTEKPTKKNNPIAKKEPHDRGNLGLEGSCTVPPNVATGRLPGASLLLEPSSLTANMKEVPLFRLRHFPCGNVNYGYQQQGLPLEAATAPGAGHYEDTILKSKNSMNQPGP
Sequence of CSNK1G2 (P78368 whole entry): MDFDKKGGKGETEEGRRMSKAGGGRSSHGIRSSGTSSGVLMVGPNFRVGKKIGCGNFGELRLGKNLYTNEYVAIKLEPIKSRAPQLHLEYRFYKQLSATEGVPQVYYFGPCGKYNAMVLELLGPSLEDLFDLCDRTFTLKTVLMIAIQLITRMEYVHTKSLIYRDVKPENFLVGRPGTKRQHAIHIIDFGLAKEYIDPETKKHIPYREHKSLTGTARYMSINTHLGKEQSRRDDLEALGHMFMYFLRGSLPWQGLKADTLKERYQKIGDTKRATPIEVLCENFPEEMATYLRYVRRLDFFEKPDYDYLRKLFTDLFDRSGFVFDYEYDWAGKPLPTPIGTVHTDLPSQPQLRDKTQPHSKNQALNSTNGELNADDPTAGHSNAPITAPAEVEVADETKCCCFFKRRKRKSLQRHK

Question: `Cc1cnc2nc1Nc1cccc(c1)COCc1cc(ccc1OCCN1CCCC1)N2` [Compound 1] was tested. Which remaining binding at 0.1 µM (ALK(L1196M)) did it give?
Answer: 60%

Question: And the remaining binding at 0.1 µM (CDK11)?
Answer: 96%

Question: What about the remaining binding at 0.1 µM (CDK4) of the same molecule?
Answer: 96%

Question: What about the remaining binding at 0.1 µM (CHEK2) of the same molecule?
Answer: 87%

Question: What about the remaining binding at 0.1 µM (CSNK1A1) of the same molecule?
Answer: 95%

Question: And the remaining binding at 0.1 µM (CSNK1G2)?
Answer: 99%

Question: And the remaining binding at 0.1 µM (DMPK2)?
Answer: 98%

Question: What about the remaining binding at 0.1 µM (DRAK1) of the same molecule?
Answer: 100%

Question: And the remaining binding at 0.1 µM (DRAK2)?
Answer: 100%

Question: And the remaining binding at 0.1 µM (FLT3(D835Y))?
Answer: 14%

Question: And the remaining binding at 0.1 µM (HCK)?
Answer: 100%

Question: And the remaining binding at 0.1 µM (IRAK3)?
Answer: 53%

Question: And the remaining binding at 0.1 µM [1]?
Answer: 12%

Question: And the remaining binding at 0.1 µM (JNK3)?
Answer: 43%

Question: What about the remaining binding at 0.1 µM (PFTK1) of the same molecule?
Answer: 84%

Question: What about the remaining binding at 0.1 µM (PIP5K2C) of the same molecule?
Answer: 76%

Question: What about the remaining binding at 0.1 µM (PRKCE) of the same molecule?
Answer: 98%

Question: And the remaining binding at 0.1 µM (PRKG2)?
Answer: 47%

Question: What about the remaining binding at 0.1 µM (RET(V804L)) of the same molecule?
Answer: 88%

Question: And the remaining binding at 0.1 µM (RIOK1)?
Answer: 75%

Question: What about the remaining binding at 0.1 µM (SNRK) of the same molecule?
Answer: 78%

Question: What about the remaining binding at 0.1 µM (SgK110) of the same molecule?
Answer: 65%

Question: And the remaining binding at 0.1 µM (TAK1)?
Answer: 67%

Question: And the remaining binding at 0.1 µM (ULK2)?
Answer: 83%

Question: What about the remaining binding at 0.1 µM (YES) of the same molecule?
Answer: 80%
